Laboratory results published in patent EP4610262A1, “MACROCYCLIC COMPOUND AS CDK9 INHIBITOR AND USE THEREOF” (Artivila Biopharma, priority 2022, dated 2024).
Like-named read-outs stand apart in the source and are kept apart here.

Experiments:
MV-4-11 = assay: CDK9 cell activity assay, cell growth inhibition (CellTiter-Glo, 72 hours); assay type: cell-based; conditions: Homo sapiens, MV4-11
Protocol: (§1) In the CDK9 cell activity assay, the cell line MV-4-11 was cultured in IMDM culture medium containing 10% fetal bovine serum (containing 100 U/mL penicillin and 0.1 g/L streptomycin); the cell line HCC1187 was cultured in RPMI-1640 culture medium containing 10% fetal bovine serum (containing 100 U/mL penicillin and 0.1 g/L streptomycin); the cell line Mia Paca-2 was cultured in DMEM containing 10% fetal bovine serum and 2.5% horse serum (containing 100 U/mL penicillin and 0.1 g/L streptomycin); and the cell line A375 was cultured in RPMI-1640 culture medium containing 10% fetal bovine serum (containing 100 U/mL penicillin and 0.1 g/L streptomycin). All cells were cultured in an incubator with saturated humidity at 37°C with 5% CO2.
(§2) When MV-4-11 cells, HCC1187 cells, Mia Paca-2 cells, and A375 cells grew to 80%-90% confluence, they were digested with trypsin, resuspended, counted, and diluted to a certain cell density with complete medium. 100 µL of the cells was plated into each well of a 96-well plate, and the complete medium was used as a background control. The cells were cultured overnight in an incubator with saturated humidity at 37°C with 5% CO2. The compounds were diluted with DMSO to a final concentration of 200×. 3 µL of the stock solution of the above compounds in DMSO was added to 197 µL of complete medium, and 50 µL of the compound diluted in the medium was added to the cells of each well. The cells were cultured in an incubator with saturated humidity at 37°C with 5% CO2 for 72 hours. After 72 hours, the culture plates were placed at room temperature for equilibrium. 40 µL of CellTiter-Glo® reagent was added to each well. The plate was mixed evenly on a shaker for 2 minutes to lyse the cells then incubated at room temperature for 60 minutes to stabilize the chemiluminescent signal, and the chemiluminescence was read using a PE EnVision microplate reader. The inhibition rate on cell growth was calculated as % Inh = (DMSO well - compound treatment well) / (DMSO well - background well) x 100, and fitting was performed using GraphPad Prism 5 to obtain the IC50 values against cell growth.

CDK9 = CDK9 (Homo sapiens, UniProt P50750); assay: Inhibition of CDK9 kinase activity (caliper mobility shift assay); assay type: biochemical; conditions: for IC50: 10 concentrations from 10 µM, three-fold dilutions; for inhibition at 0.01 µM: compound at 10 nM
Protocol: (§3) Compounds were tested at a concentration of 10 nM with detection in duplicate wells, or tested at 10 concentrations starting from 10 µM with three-fold serial dilutions, with detection in duplicate wells.
(§4) The inhibitory effect of the compounds on the activity of CDK9 protein kinase was detected by the caliper mobility shift assay method. 250 nL of the compound at 100-fold final concentration was transferred to a target 384-well-plate with a dispenser Echo 550. A kinase solution at 2.5-fold final concentration was prepared using 1× kinase buffer. 10 µL of the kinase solution at 2.5-fold final concentration was added to the compound well and positive control well respectively. 10 µL of 1× kinase buffer was added to the negative control well. The 384-well plate was centrifuged at 1000 rpm for 30 seconds and incubated at room temperature for 10 minutes. A mixed solution of ATP and kinase substrate at 5/3-fold final concentration was prepared with 1× kinase buffer, and to the 384-well plate was added with 15 µL per well of the mixed solution of ATP and substrate at 5/3-fold final concentration to start the reaction. The plate was centrifuged at 1000 rpm for 30 seconds, shaken to mix evenly, and incubated at room temperature for a corresponding time. 30 µL of detection stopping solution was added to terminate the kinase reaction. The 384-well plate was centrifuged at 1000 rpm for 30 seconds and shaken to mix evenly. The conversion rate was read with Caliper EZ Reader. The percent conversion inhibition rate = (% positive control conversion rate mean - % sample conversion rate / (% positive control conversion rate mean - % negative control conversion rate mean). Among them: negative control wells represent the conversion rate readings of kinase buffer background wells; positive control wells represent the conversion rate readings of wells without inhibition by compound. With the log value of concentration as the x-axis and the percentage inhibition rate as the y-axis, a dose-response curve was fitted using the log (inhibitor) vs. response -Variable slope of the analysis software GraphPad Prism 5 to obtain the IC50 value of each compound on enzyme activity. Calculation formula: y=Bottom + (Top-Bottom)/(1+10^((LogIC50-x) × hillslope)), x: logarithm of inhibitor concentration; y: % inhibition rate.

JAK1 = JAK1 (Homo sapiens, UniProt P23458); assay: Kinase selectivity, inhibition rate at 10 nM (caliper mobility shift assay); assay type: biochemical; conditions: compound at 10 nM
Protocol: as §3, §4
(§5) According to the description of the above experiment on kinase activity inhibition, some compounds were tested for their selective inhibition rate against the kinases of CDK7, CDK9, JAK1, JAK2, JAK3, ITK, RET, TYK2, and LRRK2 at 10 nM. The results are shown in Table 3 below: (Inhibition rate range: A>50%; B: 25-49%; C: <25%): […]

JAK2 = JAK2 (Homo sapiens, UniProt O60674); assay: as above; assay type: biochemical; conditions: compound at 10 nM
Protocol: as §3, §4, §5

LRRK2 = LRRK2 (Homo sapiens, UniProt Q5S007); assay: as above; assay type: biochemical; conditions: compound at 10 nM
Protocol: as §3, §4, §5

A375 = assay: CDK9 cell activity assay, cell growth inhibition (CellTiter-Glo, 72 hours); assay type: cell-based; conditions: Homo sapiens, A-375
Protocol: as §1, §2

Mia-Paca-2 = assay: as above; assay type: cell-based; conditions: Homo sapiens
Protocol: as §1, §2

HCC1187 = assay: as above; assay type: cell-based; conditions: Homo sapiens
Protocol: as §1, §2

[1] = selectivity panel Table 3, read-out: Inhibition rate CDK9
[2] = read-out: Inhibition rate on CDK9 kinase activity

CDK9, sequence (P50750 whole entry): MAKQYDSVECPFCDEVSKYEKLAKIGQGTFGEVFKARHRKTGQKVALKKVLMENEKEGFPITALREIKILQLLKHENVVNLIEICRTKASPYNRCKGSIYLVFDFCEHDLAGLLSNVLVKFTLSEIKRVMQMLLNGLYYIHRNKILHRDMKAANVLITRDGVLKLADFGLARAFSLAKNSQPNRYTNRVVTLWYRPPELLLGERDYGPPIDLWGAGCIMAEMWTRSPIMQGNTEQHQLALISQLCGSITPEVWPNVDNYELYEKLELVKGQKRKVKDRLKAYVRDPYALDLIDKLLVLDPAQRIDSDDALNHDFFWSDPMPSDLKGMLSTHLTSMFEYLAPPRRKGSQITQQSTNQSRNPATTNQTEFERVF
CDK9, sequence (O60563 whole entry partner): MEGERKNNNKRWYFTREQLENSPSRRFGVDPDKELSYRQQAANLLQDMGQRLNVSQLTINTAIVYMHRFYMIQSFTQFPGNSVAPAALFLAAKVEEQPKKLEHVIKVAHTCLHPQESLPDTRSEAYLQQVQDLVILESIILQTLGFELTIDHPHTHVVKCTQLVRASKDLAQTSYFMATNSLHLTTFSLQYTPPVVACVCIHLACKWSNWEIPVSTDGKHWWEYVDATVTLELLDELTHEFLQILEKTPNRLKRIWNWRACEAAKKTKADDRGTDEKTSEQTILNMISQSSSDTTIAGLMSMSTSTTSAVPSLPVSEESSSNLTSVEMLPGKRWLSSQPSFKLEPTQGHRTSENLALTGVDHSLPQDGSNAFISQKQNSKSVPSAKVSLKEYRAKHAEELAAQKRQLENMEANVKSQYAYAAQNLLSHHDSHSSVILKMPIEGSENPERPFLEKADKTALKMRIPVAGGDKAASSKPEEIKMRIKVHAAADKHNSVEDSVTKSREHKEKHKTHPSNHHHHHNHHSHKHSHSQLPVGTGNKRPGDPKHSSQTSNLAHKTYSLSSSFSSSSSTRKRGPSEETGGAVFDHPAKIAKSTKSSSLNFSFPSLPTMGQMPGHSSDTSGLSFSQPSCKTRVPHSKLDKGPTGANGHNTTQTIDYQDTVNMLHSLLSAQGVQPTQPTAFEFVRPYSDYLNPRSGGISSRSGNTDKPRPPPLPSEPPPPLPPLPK
JAK1, sequence (P23458 whole entry): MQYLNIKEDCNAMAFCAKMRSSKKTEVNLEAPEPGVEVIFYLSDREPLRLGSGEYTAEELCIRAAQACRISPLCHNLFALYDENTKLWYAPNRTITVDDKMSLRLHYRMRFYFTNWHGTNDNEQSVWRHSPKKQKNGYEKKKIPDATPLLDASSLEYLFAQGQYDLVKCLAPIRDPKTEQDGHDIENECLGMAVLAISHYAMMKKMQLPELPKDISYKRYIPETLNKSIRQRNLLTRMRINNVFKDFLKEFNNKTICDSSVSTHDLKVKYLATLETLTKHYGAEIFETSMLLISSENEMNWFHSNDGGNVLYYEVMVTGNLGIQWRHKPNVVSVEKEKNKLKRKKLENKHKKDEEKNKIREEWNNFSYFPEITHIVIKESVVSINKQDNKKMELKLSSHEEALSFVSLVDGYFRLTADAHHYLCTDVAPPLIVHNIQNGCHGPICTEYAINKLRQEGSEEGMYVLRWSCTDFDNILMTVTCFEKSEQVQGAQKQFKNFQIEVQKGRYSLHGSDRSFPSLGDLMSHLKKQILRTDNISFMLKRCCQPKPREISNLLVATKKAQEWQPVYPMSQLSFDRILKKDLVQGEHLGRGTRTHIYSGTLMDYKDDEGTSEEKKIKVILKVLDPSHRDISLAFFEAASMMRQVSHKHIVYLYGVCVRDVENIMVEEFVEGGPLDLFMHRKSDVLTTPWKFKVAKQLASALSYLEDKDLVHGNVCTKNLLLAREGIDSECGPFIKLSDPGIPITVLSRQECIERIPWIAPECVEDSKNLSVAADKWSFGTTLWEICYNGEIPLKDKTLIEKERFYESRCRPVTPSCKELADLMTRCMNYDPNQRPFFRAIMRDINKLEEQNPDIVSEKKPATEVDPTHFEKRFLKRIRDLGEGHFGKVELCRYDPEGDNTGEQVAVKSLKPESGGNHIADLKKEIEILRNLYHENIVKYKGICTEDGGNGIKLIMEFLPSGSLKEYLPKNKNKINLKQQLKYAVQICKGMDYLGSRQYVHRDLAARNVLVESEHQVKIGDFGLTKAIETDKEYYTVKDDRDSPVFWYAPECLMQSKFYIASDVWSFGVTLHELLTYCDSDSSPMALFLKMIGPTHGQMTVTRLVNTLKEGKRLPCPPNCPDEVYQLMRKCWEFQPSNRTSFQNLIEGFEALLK
JAK2, sequence (O60674 whole entry): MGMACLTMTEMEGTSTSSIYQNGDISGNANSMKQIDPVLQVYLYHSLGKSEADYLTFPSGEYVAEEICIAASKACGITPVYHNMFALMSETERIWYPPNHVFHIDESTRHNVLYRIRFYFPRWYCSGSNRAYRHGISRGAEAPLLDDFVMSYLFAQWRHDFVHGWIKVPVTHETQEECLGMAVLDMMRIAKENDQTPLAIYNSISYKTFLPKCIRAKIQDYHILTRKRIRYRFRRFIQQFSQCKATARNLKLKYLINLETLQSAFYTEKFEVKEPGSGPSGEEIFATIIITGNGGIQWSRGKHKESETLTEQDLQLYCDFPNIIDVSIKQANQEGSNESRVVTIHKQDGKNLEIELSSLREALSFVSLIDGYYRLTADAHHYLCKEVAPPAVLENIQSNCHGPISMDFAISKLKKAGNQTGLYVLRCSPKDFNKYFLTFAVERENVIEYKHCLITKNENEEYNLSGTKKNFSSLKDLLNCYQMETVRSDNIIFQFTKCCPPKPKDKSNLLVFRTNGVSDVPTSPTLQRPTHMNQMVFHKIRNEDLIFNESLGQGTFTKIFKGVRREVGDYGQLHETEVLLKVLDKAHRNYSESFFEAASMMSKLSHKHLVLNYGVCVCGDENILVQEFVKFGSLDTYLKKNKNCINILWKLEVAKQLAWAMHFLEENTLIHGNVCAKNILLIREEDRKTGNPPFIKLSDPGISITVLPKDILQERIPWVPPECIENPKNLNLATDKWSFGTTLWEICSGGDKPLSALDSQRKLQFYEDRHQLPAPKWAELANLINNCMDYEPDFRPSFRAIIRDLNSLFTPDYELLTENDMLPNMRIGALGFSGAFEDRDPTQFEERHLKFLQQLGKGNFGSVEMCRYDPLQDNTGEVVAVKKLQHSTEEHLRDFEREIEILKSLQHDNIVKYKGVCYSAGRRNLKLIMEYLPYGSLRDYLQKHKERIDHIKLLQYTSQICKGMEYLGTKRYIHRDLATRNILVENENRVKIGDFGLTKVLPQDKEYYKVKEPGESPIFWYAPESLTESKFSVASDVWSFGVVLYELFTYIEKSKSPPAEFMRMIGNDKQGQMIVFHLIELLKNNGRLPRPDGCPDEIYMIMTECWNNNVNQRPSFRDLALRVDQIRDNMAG

SMILES	IC50 (MV-4-11) [µM]	IC50 (CDK9) [µM]	inhibition at 0.01 µM (CDK9; [1]) [%]	inhibition at 0.01 µM (CDK9; [2]) [%]	inhibition at 0.01 µM (JAK1) [%]	inhibition at 0.01 µM (JAK2) [%]	inhibition at 0.01 µM (LRRK2) [%]	IC50 (A375) [µM]	IC50 (Mia-Paca-2) [µM]	IC50 (HCC1187) [µM]
Clc1cnc2nc1OCCCCCNCc1cccc(c1)N2 [Compound 18, 1^5-chloro-11-oxa-2,5-diaza-1(2,4)-pyrimidina-3(1,3)-benzenacyclodecaphane]	< 0.25	< 0.1	> 50	> 50	< 25	< 25				
N#Cc1cnc2nc1NCCCCCNCc1cccc(c1)N2 [Compound 15, 2,5,11-triaza-1(2,4)-pyrimidina-3(1,3)-benzenacycloundecaphan-1^5-carbonitrile]		< 0.1	25 to 49	25 to 49	< 25	< 25	< 25			
CN1CCCCCNc2nc(ncc2Cl)Nc2cccc(c2)C1 [Compound 10, 1^5-chloro-5-methyl-2,5,11-triaza-1(2,4)-pyrimidina-3(1,3)-benzene cycloundecane]	< 0.25	< 0.1		25 to 49				0.25 to 1	0.25 to 1	1 to 5
Cc1ccc2cc1-c1nc(ncc1Cl)Nc1cccc(c1)NC/C=C\CN2 [Compound 12, (Z)-2^5-chloro-1^6-methyl-3,5,10-triaza-2(4,2)-pyrimidina-1,4(1,3)-dibenzocyclodecane-7-ene]	< 0.25	< 0.1	> 50	> 50	< 25	< 25	< 25	< 0.25	< 0.25	< 0.25
